ChEMBL document CHEMBL5038666, “Discovery of DNA-Targeting HDAC Inhibitors with Potent Antitumor Efficacy In Vivo That Trigger Antitumor Immunity” (J Med Chem, 2022)
Active and inactive are the calls of the source. The rule behind the calls is not given here.

Experiments:
B16-F10 [1] = assay: Antitumor immunity against mouse B16-F10 cells implanted in C57BL/6J mouse assessed as fold increase in CD69 expression by flow cytometry analysis relative to control; type: functional
B16-F10 [2] = assay: Antitumor immunity against mouse B16-F10 cells implanted in C57BL/6J mouse assessed as fold increase in IFN-gamma secretion by flow cytometry analysis relative to control; type: functional
B16-F10 [3] = assay: Antitumor immunity against mouse B16-F10 cells implanted in C57BL/6J mouse assessed as fold reduction in Treg cells in spleen by flow cytometry analysis relative to control; type: functional
B16-F10 [4] = assay: Antitumor immunity against mouse B16-F10 cells implanted in C57BL/6J mouse assessed as fold increase of CD4+ T cells in spleen by flow cytometry analysis relative to control; type: functional
[5] = Toxicity in C57BL/6J mouse implanted with mouse B16-F10 cells assessed as spleen damage at 60 mg/kg, IG administered for 12 days H and E staining based histopathological analysis; type: organism-based; conditions: in vivo, po, 288 h, time 12 day
B16-F10 [6] = assay: Antitumor immunity against mouse B16-F10 cells implanted in C57BL/6J mouse assessed as fold reduction in M2 macrophages in tumor microenvironment by flow cytometry analysis relative to control; type: functional
B16-F10 [7] = assay: Antitumor immunity against mouse B16-F10 cells implanted in C57BL/6J mouse assessed as fold reduction in macrophages in tumor microenvironment by flow cytometry analysis relative to control; type: functional
[8] = Toxicity in mouse xenografted with HEL cells assessed as effect on body weight at 90 mg/kg, ip administered for 20 days; type: organism-based; conditions: in vivo, 480 h, time 20 day
B16-F10 [9] = assay: Antitumor activity against mouse B16-F10 cells xenografted in C57BL/6J mouse assessed as reduction in tumor heterogeneity at 60 mg/kg, IG administered for 12 days by H and E staining based histopathological analysis; type: functional, organism-based; conditions: time 12.0 day
[10] = Toxicity in C57BL/6J mouse implanted with mouse B16-F10 cells assessed as glomerular structure damage in kidney at 60 mg/kg, IG administered for 12 days H and E staining based histopathological analysis; type: organism-based; conditions: in vivo, po, 288 h, time 12 day
B16-F10 [11] = assay: Antitumor immunity against mouse B16-F10 cells implanted in C57BL/6J mouse assessed as increase in proportion of dendritic cells by flow cytometry analysis; type: functional, cell-based
B16-F10 [12] = assay: Antitumor activity against mouse B16-F10 cells xenografted in C57BL/6J mouse assessed as change in tumor cell morphology into normal tissue at 60 mg/kg, IG administered for 12 days by H and E staining based histopathological analysis; type: functional, organism-based; conditions: time 12.0 day
[13] = Toxicity in C57BL/6J mouse implanted with mouse B16-F10 cells assessed as lung damage at 60 mg/kg, IG administered for 12 days H and E staining based histopathological analysis; type: organism-based; conditions: in vivo, po, 288 h, time 12 day
B16-F10 [14] = assay: Antitumor immunity against mouse B16-F10 cells implanted in C57BL/6J mouse assessed as fold increase in CD107a expression by flow cytometry analysis relative to control; type: functional
B16-F10 [15] = assay: Antitumor immunity against mouse B16-F10 cells implanted in C57BL/6J mouse assessed as fold increase in CD86 expression by flow cytometry analysis relative to control; type: functional
B16-F10 [16] = assay: Antitumor immunity against mouse B16-F10 cells implanted in C57BL/6J mouse assessed as fold increase of CD8+ T cells in spleen by flow cytometry analysis relative to control; type: functional
HepG2 = assay: cells; type: functional, cell-based; conditions: Homo sapiens, HepG2, 48 h
Description: Antiproliferative activity against human HepG2 cells assessed as inhibition of cell growth measured after 48 hrs by MTT assay

B16-F10 [17] = assay: Antitumor immunity against mouse B16-F10 cells implanted in C57BL/6J mouse assessed as fold increase in ICOS expression by flow cytometry analysis relative to control; type: functional
B16-F10 [18] = assay: Antitumor immunity against mouse B16-F10 cells implanted in C57BL/6J mouse assessed as fold increase of CD3+ T cells in spleen by flow cytometry analysis relative to control; type: functional
KG-1 [19] = assay: Downregulation of SPT16 expression in human KG-1 cells assessed as chromatin damage at 0.5 to […] measured after 24 hrs by Western blot analysis; type: functional, cell-based; conditions: dose 0.5-2.5 µM
Calf thymus DNA [20] = assay: Binding affinity to calf thymus DNA assessed as change in entropy at 500 microM by isothermal titration calorimetric analysis; type: nucleic-acid assay; conditions: Bos taurus
KG-1 [21] = assay: Potency index, ratio of SAHA IC50 to test compound IC50 for antiproliferative activity against human KG1 cells assessed as inhibition of cell growth measured after 48 hrs by MTT assay; type: functional
KG-1 [22] = assay: Induction of apoptosis in human KG-1 cells assessed as total apoptotic cells at 1 uM measured after 24 hrs by Annexin V-FITC/propidium iodide staining based flow cytometry analysis relative to control; type: functional
B16-F10 [23] = assay: Antitumor immunity against mouse B16-F10 cells implanted in C57BL/6J mouse assessed as increase in proportion of T cells in spleen by flow cytometry analysis; type: functional, cell-based
KG-1 [24] = assay: Induction of apoptosis in human KG-1 cells assessed as increase in cleaved active caspase 3 level at 0.5 to […] measured after 24 hrs by Western blot analysis; type: functional, cell-based; conditions: dose 0.5-2.5 µM
KG-1 [25] = assay: Induction of apoptosis in human KG-1 cells measured after 24 hrs by Annexin V-FITC/propidium iodide staining based flow cytometry analysis; type: functional, cell-based; conditions: dose 0.5-1 µM
KG-1 [26] = assay: Downregulation of SSRP-1 expression in human KG-1 cells assessed as chromatin damage at 0.5 to […] measured after 24 hrs by Western blot analysis; type: functional, cell-based; conditions: dose 0.5-2.5 µM
[27] = target: T1, Histone deacetylase (Homo sapiens) (UniProt Q13547+O15379+Q9UBN7+Q92769+Q9UQL6+Q8WUI4+Q9BY41+Q96DB2+P56524+Q9UKV0+Q969S8); assay: Inhibition of HDAC in human KG-1 cells assessed as increase in acetylation of histone H3 measured after 24 hrs by Western blot analysis; type: cell-based; conditions: dose 0.5-2.5 µM
Calf thymus DNA [28] = assay: Binding affinity to calf thymus DNA assessed as increase in absorption at 20 uM by UV-vis absorption spectroscopy; type: nucleic-acid assay; conditions: Bos taurus
[29] = target: T1, Histone deacetylase (Homo sapiens); assay: Inhibition of HDAC in human KG1 cells assessed as increase in acetylation of alpha tubulin measured after 24 hrs by Western blot analysis; type: cell-based; conditions: KG-1, dose 0.5-2.5 µM

**Q.** Which “fold change (FC)” value (B16-F10 [1]) does the source give for `O=C(CCCCCCCOc1cccc(-c2nc3ccccc3[nH]2)c1)NO` here?
**A.** 1.5

**Q.** What about the “fold change (FC)” value (B16-F10 [2]) of the same compound?
**A.** 1.5

**Q.** What about the “fold change (FC)” value (B16-F10 [3]) of the same compound?
**A.** 1.5

**Q.** And the “fold change (FC)” value (B16-F10 [4])?
**A.** 2

**Q.** What about the Activity [5] of the same compound?
**A.** Non-Toxic

**Q.** What about the “fold change (FC)” value (B16-F10 [6]) of the same compound?
**A.** 1.5

**Q.** And the “fold change (FC)” value (B16-F10 [7])?
**A.** 1.7

**Q.** And the Activity [8]?
**A.** Non-Toxic

**Q.** What about the Activity (B16-F10 [9]) of the same compound?
**A.** Active

**Q.** What about the Activity [10] of the same compound?
**A.** Toxic

**Q.** What about the Activity (B16-F10 [11]) of the same compound?
**A.** inactive

**Q.** And the Activity (B16-F10 [12])?
**A.** Active

**Q.** And the Activity [13]?
**A.** Non-Toxic

**Q.** What about the “fold change (FC)” value (B16-F10 [14]) of the same compound?
**A.** 1.5

**Q.** And the “fold change (FC)” value (B16-F10 [15])?
**A.** 1.3

**Q.** And the “fold change (FC)” value (B16-F10 [16])?
**A.** 1.5

**Q.** And the IC50 (HepG2)?
**A.** 4.8 µM

**Q.** What about the “fold change (FC)” value (B16-F10 [17]) of the same compound?
**A.** 1.5

**Q.** What about the “fold change (FC)” value (B16-F10 [18]) of the same compound?
**A.** 1.6

**Q.** With `O=C(CCCCCCOc1cccc(-c2nc3ccccc3[nH]2)c1)NO` as the compound, how does the Activity (KG-1 [19]) read?
**A.** Active

**Q.** What about the -TdeltaS (Calf thymus DNA [20]) of the same compound?
**A.** 74 kcal/mol

**Q.** What about the “fold change (FC)” value (B16-F10 [3]) of the same compound?
**A.** 1.5

**Q.** And the “fold change (FC)” value (KG-1 [21])?
**A.** 50

**Q.** What about the Activity [5] of the same compound?
**A.** Non-Toxic

**Q.** What about the “fold change (FC)” value (B16-F10 [7]) of the same compound?
**A.** 1.7

**Q.** And the Activity [8]?
**A.** Non-Toxic

**Q.** And the Activity (B16-F10 [9])?
**A.** Active

**Q.** What about the Activity (KG-1 [22]) of the same compound?
**A.** 56.9%

**Q.** What about the Activity (B16-F10 [23]) of the same compound?
**A.** Active

**Q.** And the Activity [10]?
**A.** Non-Toxic

**Q.** What about the Activity (KG-1 [24]) of the same compound?
**A.** Active

**Q.** What about the Activity (B16-F10 [12]) of the same compound?
**A.** Active

**Q.** And the Activity (KG-1 [25])?
**A.** Dose-Dependent Effect

**Q.** What about the Activity (KG-1 [26]) of the same compound?
**A.** Active

**Q.** What about the Activity [27] of the same compound?
**A.** Dose-Dependent Effect

**Q.** What about the “fold change (FC)” value (B16-F10 [15]) of the same compound?
**A.** 1.3

**Q.** What about the IC50 (HepG2) of the same compound?
**A.** 3.9 µM

**Q.** What about the Activity (Calf thymus DNA [28]) of the same compound?
**A.** Active

**Q.** And the Activity [29]?
**A.** Dose-Dependent Effect
